Measurements: patent US20180042234A1, “FUNGICIDAL PYRAZOLES” (E I DU PONT DE NEMOURS AND COMPANY, priority 2015, published 2018)
Marks after values point to notes of the source that are not given here.

How the values were obtained:
Septoria tritici = assay: Test B: wheat leaf blotch, preventive spray on wheat seedlings, visual disease rating; format: in vivo
Source text: (§1) General protocol for preparing test suspensions for Tests A-E: the test compounds were first dissolved in acetone in an amount equal to 3% of the final volume and then suspended at the desired concentration (in ppm) in acetone and purified water (50/50 mix by volume) containing 250 ppm of the surfactant Trem® 014 (polyhydric alcohol esters). The resulting test suspensions were then used in Tests A-E. Spraying a 200 ppm test suspension to the point of run-off on the test plants was the equivalent of a rate of 800 g/ha.
(§2) The test suspension was sprayed to the point of run-off on wheat seedlings. The following day the seedlings were inoculated with a spore suspension of Septoria tritici (the causal agent of wheat leaf blotch) and incubated in a saturated atmosphere at 24° C. for 48 h, and then moved to a growth chamber at 20° C. for 19 days, after which time visual disease ratings were made.
(§3) Results for Tests A-E are given in Table A. In the Table, a rating of 100 indicates 100% disease control and a rating of 0 indicates no disease control (relative to the controls). A dash (-) indicates no test results. All results are for 200 ppm except where followed by an asterisk “*” which indicates a 250 ppm test suspension was used or a double asterisk “**” which indicates a 50 ppm test suspension was used.

Septoria nodorum = assay: Test E: Septoria glume blotch, preventive spray on wheat seedlings, visual disease rating; format: in vivo
Source text: as §1
as §2, with “nodorum” for “tritici”, “Septoria glume” for “wheat leaf”, “20°” for “24°”, “9” for “19”
as §3

Botrytis cinerea = assay: Test C: tomato Botrytis, preventive spray on tomato seedlings, visual disease rating; format: in vivo
Source text: as §1
as §2, with “tomato” for “wheat”, “Botrytis cinerea” for “Septoria tritici”, “tomato Botrytis)” for “wheat leaf blotch)”, “20°” for “24°”, “24°” for “20°”, “3” for “19”
as §3

[1] = tested on: Puccinia recondita f. sp. tritici; assay: Test A: wheat leaf rust, preventive spray on wheat seedlings, visual disease rating; format: in vivo
Source text: as §1
as §2, with “Puccinia recondita f. sp.” for “Septoria”, “rust)” for “blotch)”, “20°” for “24°”, “24” for “48”, “7” for “19”
as §3

[2] = tested on: Blumeria graminis f sp. tritici; assay: Test D: wheat powdery mildew, preventive spray on wheat seedlings, visual disease rating; format: in vivo
Source text: as §1
The test suspension was sprayed to the point of run-off on wheat seedlings. The following day the seedlings were inoculated with a spore dust of Blumeria graminis f sp. tritici, (also known as Erysiphe graminis f sp. tritici, the causal agent of wheat powdery mildew) and incubated in a growth chamber at 20° C. for 8 days, after which time visual disease ratings were made.
as §3

[3] = 200 ppm test suspension, 100 = 100% disease control, 0 = no control

SMILES | Test B disease control rating (Septoria tritici; 250 ppm test suspension (*)) | Test E disease control rating (Septoria nodorum; 250 ppm test suspension (*)) | Test C disease control rating (Botrytis cinerea; 250 ppm test suspension (*)) | Test A disease control rating ([1]; 250 ppm test suspension (*)) | Test D disease control rating ([2]; 250 ppm test suspension (*)) | Test B disease control rating (Septoria tritici; 200 ppm test suspension) [%] | Test E disease control rating (Septoria nodorum; 200 ppm test suspension) [%] | Test C disease control rating (Botrytis cinerea; 200 ppm test suspension) [%] | Test A disease control rating [1, 3] [%] | Test D disease control rating ([2]; 200 ppm test suspension) [%] | melting point [°C]
Cc1nn(C)c(Nc2ccc(F)cc2F)c1C1CCC(C)CC1 (stereo not drawn) [Compound 16] | 0* % | 19* % | 19* % | 53* % | 97* % |  |  |  |  |  | 
Cc1nn(C)c(Nc2c(F)cc(Cl)cc2F)c1C1=CCCC1 [Compound 43] |  |  |  |  |  | 92 | 0 | 0 | 68 | 0 | 
Cc1nn(C)c(C(O)c2ccc(F)cc2Cl)c1C1CCCCC1 (stereo not drawn) [Compound 11, α-(2-chloro-4-fluorophenyl)-4-cyclohexyl-1,3-dimethyl-1H-pyrazole-5-methanol] | 100* % |  | 24* % | 86* % | 93* % |  |  |  |  |  | 171 to 173
C=C(C)c1c(C)nn(C)c1Nc1c(F)cc([N+](=O)[O-])cc1F [Compound 36] | 88* % | 0* % | 0* % | 55* % | 27* % |  |  |  |  |  | 
CCC(=O)c1c(C)nn(C)c1Oc1c(F)cccc1F [Compound 7] |  |  |  |  |  | 62 | 0 | 0 | 0 | 0 | 
CCCCCCCCc1c(C)nn(C)c1Nc1ccc(F)cc1 [Compound 1] |  |  |  |  |  | 0 | 0 | 0 | 41 | 63 | 
CCC(=NOC)c1c(C)nn(C)c1Oc1c(F)cccc1F [Compound 49] |  |  |  |  |  | 16 | 0 | 39 | 0 | 0 | 
CCC(=NO)c1c(C)nn(C)c1Oc1c(F)cccc1F [Compound 47] |  |  |  |  | 89* % | 81 | 0 | 0 | 0 |  | 
Cc1nn(C)c(Nc2c(F)cc(Cl)cc2F)c1C1CCCCC1 [Compound 46, N-(4-chloro-2,6-difluorophenyl)-4-cyclohexyl-1,3-dimethyl-1H-pyrazol-5-amine] |  |  |  |  |  | 99 | 0 | 95 | 92 | 98 | 
CCC(=NOC(C)C)c1c(C)nn(C)c1Oc1c(F)cccc1F [Compound 48] |  |  |  |  |  | 32 | 0 | 18 | 0 | 0 | 
Cc1nn(C)c(Nc2c(F)cc(Cl)cc2F)c1C1=CCCCC1 [Compound 6, N-(4-chloro-2,6-difluorophenyl)-4-(1-cyclohexen-1-yl)-1,3-dimethyl-1H-pyrazol-5-amine] |  |  |  |  |  | 84 | 0 | 98 | 19 | 0 | 
Cc1nn(C)c(Nc2c(F)cc(Cl)cc2F)c1C1CCCC1 [Compound 52, N-(4-chloro-2,6-difluorophenyl)-4-cyclopenyl-1,3-dimethyl-1H-pyrazol-5-amine] |  |  |  |  |  | 99 | 0 | 96 | 89 | 98 | 
CC=C(CC)c1c(C)nn(C)c1Oc1c(F)cccc1F [Compound 51] |  |  |  |  |  | 0 | 0 | 15 | 0 | 0 | 
CC(=NO)c1c(C)nn(C)c1Nc1ccc(F)cc1Cl [Compound 34] | 76* % | 0* % | 0* % | 28* % | 64* % |  |  |  |  |  | 
CCON=C(CC)c1c(C)nn(C)c1Oc1c(F)cccc1F [Compound 50] |  |  |  |  |  | 40 | 0 | 3 | 0 | 0 | 
Cc1nn(C)c(Nc2c(F)cc([N+](=O)[O-])cc2F)c1C1=CCCCC1 [Compound 4] |  |  |  |  |  | 93 | 0 | 92 | 32 | 0 | 
CCC(O)(CC)c1c(C)nn(C)c1Oc1c(F)cccc1F [Compound 44] |  |  |  |  |  | 15 | 0 | 3 | 0 | 43 | 
Cc1nn(C)c(Nc2c(F)cc(N)cc2F)c1C1=CCCCC1 [Compound 5] |  |  |  |  |  | 1 | 0 | 0 | 0 | 0 | 
Cc1nn(C)c(Nc2ccc(F)cc2Cl)c1C1=CCC(C#N)CC1 (stereo not drawn) [Compound 13] | 97* % | 0* % | 79* % | 67* % | 13* % |  |  |  |  |  | 
CCCON=C(CC)c1c(C)nn(C)c1Oc1c(F)cccc1F [Compound 45] |  |  |  |  |  | 3 | 0 | 0 | 0 | 0 | 
Cc1nn(C)c(Nc2ccc(F)cc2)c1C1CCC(C)(C)CC1 [Compound 14] | 33* % | 62* % | 0* % | 67* % | 27* % |  |  |  |  |  | 
Cn1nc(Br)c(C2OCCCO2)c1C(O)c1ccc(F)cc1F (stereo not drawn) [Compound 10] | 0* % |  | 0* % | 0* % | 90* % |  |  |  |  |  | 
CCC(OC)c1c(C)nn(C)c1Oc1c(F)cccc1F (stereo not drawn) [Compound 25] | 6* % |  | 0* % | 99* % | 0* % |  |  |  |  |  | 
CON=C(C)c1c(C)nn(C)c1Nc1ccc(F)cc1Cl [Compound 30] | 14* % |  | 0* % | 80* % | 0* % |  |  |  |  |  | 
CCCCCCCCc1c(C)nn(C)c1Nc1ccc(F)cc1Cl [Compound 2] |  |  |  |  |  | 0 | 0 | 0 | 0 | 0 | 
Cn1nc(Br)c(C2OCCCO2)c1C(O)c1ccc(F)cc1Br (stereo not drawn) [Compound 9] | 0* % |  | 0* % | 0* % | 64* % |  |  |  |  |  | 
